{
  "source": "patent US20150011484A1",
  "about": "“PRODRUGS OF D-GAMMA-GLUTAMYL-D-TRYPTOPHAN AND D-GAMMA-GLUTAMYL-L-TRYPTOPHAN” (APOTEX TECHNOLOGIES, INC., priority 2011, published 2015)",
  "key": {"[1]": {"assay": "Distribution coefficient determination, D7.4 (1-octanol / MOPS buffer pH 7.4)", "type": "physicochemical", "experimental": "MOPS buffer (50 mM, pH=7.4) and 1-octanol were used as the aqueous phase and the organic phase, respectively. The MOPS buffer and 1-octanol were mixed, and pre-saturated with each other prior to use.\nIn a typical experiment, an aqueous solution of Apo848 hydrochloride salt (H-D-Glu(D-Trp-O-isoamyl)-O-isoamy HCl) was prepared by weighing out 2 mg of the compound into a 5-mL volumetric flask, followed by addition of MOPS buffer (50 mM, pH=7.4) to volume. The resulting mixture was sonicated and vortexed to ensure complete dissolution. The resulting solution was analyzed by HPLC (Column: XTerra MS C18, […], 4.6×250 mm; Mobile phase: A=4 mM Tris, 2 mM EDTA, pH 7.4 aqueous, B=acetonitrile; Gradient method: time in minutes—B in %:0-5, 15-55, 25-55, 25.05-5, 30-5; Flow rate: 1 mL/min; Injection volume=2 μL; detector wavelength: 282 nm) to obtain the peak height (Haqu^l).\nOne mL of this aqueous solution was pipetted out into another 10-mL test-tube and mixed with 1 mL of 1-octanol. The mixture was vortexed for 1 hour, then centrifuged at 4000 rpm for 15 minutes. The two phases were separated. Both the aqueous phase and the organic phase were analyzed by HPLC to obtain the peak heights, Haqu^F and Horg^F. The distribution coefficient, D7.4, was calculated using one or both the following equations: D7.4=(Haqu^l−Haqu^F)/Haqu^F, or D7.4=Horg^F/Haqu^F."}, "[2]": {"tested_on": "human hepatocytes", "assay": "Biotransformation studies in human cryopreserved hepatocytes", "type": "in vitro ADME", "conditions": "for Bioconversion to Apo805 in human hepatocytes: in 3 h, 100 μM, cryopreserved human hepatocytes", "experimental": "LiverPool® cryopreserved human hepatocytes (pooled from 10 male donors) was obtained from Celsis In Vitro Technologies. The hepatocytes were stored in liquid nitrogen until used. Just before the assay, the hepatocytes were quickly thawed at 37° C. and centrifuged at 100×g for 10 min. The media was removed and cells were re-suspended in PBS at a density of 4×10^6 cells/mL.\nThe compound of Formula I (100 μM) was incubated with 0.1×10^6 hepatocytes in 50 μL volume. […] The “time 0” sample was generated by adding TCA before the test compound. After brief vortexing and 10-min incubation on ice, samples were centrifuged (16,000×g, 10 min) and the supernatants were analyzed by HPLC with UV detection.\nHPLC analysis of pro-drugs in SGF, SIF, plasma and hepatocytes samples: HPLC analysis was done using an Agilent 1100 series HPLC system consisting of a programmable multi-channel pump, auto-injector, vacuum degasser and HP detector controlled by Agilent HPLC218 Chem Station Rev.A.09.03 software for data acquisition and analysis. A gradient method was used for the determination of all pro-drugs and their hydrolysis products including Apo805 on an Agilent Eclipse XDB, C18 column (part #963967-902, 150×4.6 mm, 3.5 μm) with the following chromatographic conditions: • Temperature: Ambient • Mobile phase: A=Aqueous phase: 10 mM Tris-HCl, 2 mM EDTA, pH 7.4 • B=Organic phase: Acetonitrile • Gradient method: Time: 0 min 5% B, 25 min 50% B, 35 min 80% B, 45 min 5% B, 50 min 5% B. • Mobile phase flow rate: 1.0 mL/min • Injection volume: 50 μL • Data acquisition time: 30 min • Detection wavelength: 280 nm; 4 nm bandwidth, ref. 360 nm, 4 nm bandwidth\nThe chromatograms at λ=280 nm were analyzed. Peak area (mAU*s) was used for quantitation of pro-drugs, intermediates and H-D-Glu(D-Trp-OH)—OH (Apo805)."}, "[3]": {"assay": "Pharmacokinetic studies in rats (oral bioavailability)", "type": "in vivo, male Sprague-Dawley rats", "experimental": "Groups of five male Sprague-Dawley rats weighing 250 to 300 g were utilized per dosing group. One day prior to dosing, venous and arterial catheters (made of 20 cm long polyurethane coiled tubing, and filled with 100 units/mL heparinized saline) were implanted into the jugular vein and carotid artery of each rat. Rats were fasted overnight prior to oral dosing and fed approximately 2 hours post-dosing. All dosing and blood sampling was performed on fully conscious rats. Tested compounds were administered either by oral gavage as solutions in water, or by intravenous injection (Apo805K1 only) as solution in 0.9% sodium chloride, final pH 7.0, at doses equivalent to 5 mg/kg (per Apo805 content). Blood (0.3 mL) was sampled from each animal from the carotid artery for up to 30 hours post-dosing, each sampling followed by an equivalent naive-blood replacement. The blood sample was immediately centrifuged (4300×g for 5 minutes at 4° C.), and frozen at −80° C. until LC/MS/MS analysis.\nMetanol (200 μL) was added to plasma samples (50 μL) to precipitate plasma proteins. After brief vortexing and centrifugation, the supernatant (200 uL) was removed and dried at 40° C. under a stream if nitrogen. The sample was reconstituted in water (300 μL) and 25 μL was injected for analysis.\nA Sciex API 365 LC/MS/MS spectrophotometer equipped with Ionics EP10+ and HSID, was used. A chiral column (Supelco-Astec CHIROBIOTIC™ TAG), 100×2.1 mm, 5 μm was used at ambient temperature. The mobile phase consisted of 0.1% formic acid in water (A) and 0.1% formic acid in acetonitrile (B) in a ratio of 88:12(A:B; v/v) and the flow rate was 0.6 mL/min. Positive ion electrospray ionization (ESI+) in MRM mode was used for analysis. Samples were analysed for the concentration of Apo805.\nAbsolute oral bioavailability of pro-drugs Apo848, a compound of Formula IA wherein G=T=isoamyl) was compared to that of Apo805K1 (potassium salt of H-D-Glu(D-Trp-OH)—OH) in male Sprague-Dawley rats. Adult animals, five per group, were dosed orally with 5 mg/kg Apo805K1, Apo848, or Apo838 and intravenously with 5 mg/kg Apo805K1.\nNon-compartmental analysis was performed using WinNonlin 5.2 software, on individual animal data. Bioavailability was calculated as a ratio of AUCINF—D after oral dosing of test compound to AUCINF—D after IV dosing of Apo805K1."}, "[4]": {"assay": "Caco-2 cell permeability evaluation", "type": "in vitro ADME", "conditions": "human; caco-2, 50 μM, HBSS pH 7.4, 37° C.; read-out: apparent permeability (Papp)", "experimental": "Human intestinal absorbtion potential of a compound of Formula I was estimated in caco-2 cells permeability assay.\nCaco-2 cells obtained originally from ATCC were seeded onto 0.9-cm^2 PET filter (Becton Dickinson) at a density of 90000 cells/insert. Culture conditions were maintained for 21-28 days in 20% fetal bovine serum containing eagle's minimum essential medium enriched with non-essential amino acids. Integrity of the cell monolayers was evaluated via measurement of Lucifer Yellow paracellular apparent permeability coefficient (Papp).\nPrior to the addition of a test compound, growth medium was removed and monolayer was rinsed twice with Hank's balanced salt solution (HBSS) at 37° C. The filter inserts containing the cell monolayers were transferred to a separate 12-well cell culture plate containing HBSS or solution of the test compound in the bottom chamber. […] For every experiment, the test compound solution was added to the top (apical-to-basolateral transport, A>B) or bottom (basolateral-to-apical transport, B>A) chamber and its appearance in the opposite chamber over time was monitored. […] Samples were analyzed by LC-MS/MS. In case of prodrugs which undergo partial hydrolysis during the experiment, the samples were analyzed for the concentration of the prodrug and all hydrolysis products. […]"}, "[5]": {"assay": "Conversion of prodrug to Apo805 in rat blood", "type": "in vitro ADME"}},
  "data": [
    {"smiles": "COC(=O)[C@H](N)CCC(=O)N[C@H](Cc1c[nH]c2ccccc12)C(=O)OC", "note": "[Apo840, H-D-Glu(D-Trp-O—Me)—O—Me, reference compound]", "values": [
      {"measurement": "Log D7.4", "setting": "[1]; pH 7.4, 1-octanol/MOPS buffer", "result": 0.57},
      {"measurement": "Bioconversion to Apo805 in human hepatocytes", "setting": "[2]", "result": 30, "unit": "% in 3 h"}
    ]},
    {"smiles": "N[C@H](CCC(=O)N[C@H](Cc1c[nH]c2ccccc12)C(=O)[O-])C(=O)[O-].[H+].[K+]", "note": "[Apo805K1, potassium salt of H-D-Glu(D-Trp-OH)—OH, reference compound]", "values": [
      {"measurement": "Absolute oral bioavailability (AUC oral / AUC intravenous Apo805K1; Apo805 measured in plasma)", "setting": "[3]; rats, oral 5 mg/kg", "result": 12, "unit": "%"}
    ]},
    {"smiles": "COC(=O)[C@@H](Cc1c[nH]c2ccccc12)NC(=O)CC[C@@H](N)C(=O)OCc1ccccc1", "note": "[Apo804, H-D-Glu(D-Trp-OMe)-O—CH2Ph]", "values": [
      {"measurement": "log D7.4 compared with Apo805", "setting": "[1]; more lipophilic than Apo805", "result": "higher"},
      {"measurement": "Bioconversion to Apo805 in human hepatocytes", "setting": "[2]", "result": 30, "unit": "%"},
      {"measurement": "Apo805 formed in human cryopreserved hepatocyte", "setting": "[2]; over a period of 4 hours", "result": 31, "unit": "%"}
    ]},
    {"smiles": "N[C@H](CCC(=O)N[C@H](Cc1c[nH]c2ccccc12)C(=O)O)C(=O)O", "note": "[Apo805, D-gamma-glutamyl-D-tryptophan]", "values": [
      {"measurement": "Log D7.4", "setting": "[1]; pH 7.4, 1-octanol/MOPS buffer", "result": "−3.22"}
    ]},
    {"smiles": "CC(C)CCOC(=O)[C@H](N)CCC(=O)N[C@H](Cc1c[nH]c2ccccc12)C(=O)OCCC(C)C.Cl", "note": "[Apo848, 3-methylbutyl (2R)-2-amino-5-{[(2R)-3-(1H-indol-3-yl)-1-(3-methylbutoxy)-1-oxopropan-2-yl]amino}-5-oxopentanoate hydrochloride]", "values": [
      {"measurement": "Absolute oral bioavailability (AUC oral / AUC intravenous Apo805K1; Apo805 measured in plasma)", "setting": "[3]; male, Sprague-Dawley, rat, in vivo, 5 mg/kg", "result": 48, "unit": "%"},
      {"measurement": "oral bioavailability compared with Apo805", "setting": "[3]; rat, in vivo, po", "result": "enhanced"},
      {"measurement": "oral exposure compared with H-D-Glu(D-Trp-OH)—OH", "setting": "[3]; rat, in vivo, po", "result": "improved"},
      {"measurement": "improvement of the log D value of H-D-Glu(D-Trp-OH)—OH", "setting": "[1]; diisoamyl ester versus parent drug", "result": "more than 10^5 fold"},
      {"measurement": "Log D7.4", "setting": "[1]; pH 7.4, 1-octanol/MOPS buffer", "result": 2.1},
      {"measurement": "distribution coefficient D7.4", "setting": "[1]; pH 7.4, 1-octanol/MOPS buffer", "result": 127},
      {"measurement": "logD", "setting": "[1]; pH 7.4, 1-octanol/MOPS buffer, read-out: Log D7.4", "result": 2.1},
      {"measurement": "Papp at 120 min, 50 μM", "setting": "[4]", "result": 2.87, "unit": "×10⁻⁶ cm/s"},
      {"measurement": "conversion to Apo805 in rat blood", "setting": "[5]", "result": "instantaneously converted"}
    ]},
    {"smiles": "COC(=O)[C@@H](Cc1c[nH]c2ccccc12)NC(=O)CC[C@@H](N)C(=O)O", "note": "[H-D-Glu(D-Trp-OMe)-OH, reference compound]", "values": [
      {"measurement": "Log D7.4", "setting": "[1]; pH 7.4, 1-octanol/MOPS buffer", "result": "−0.89"}
    ]}
  ]
}
